Reference: US8846746B2, “Pyrazole compound and pharmaceutical use thereof” (Japan Tobacco Inc., priority 2011, dated 2014)

molecular target: human SGLT1 (Homo sapiens (Human), UniProt P13866); assay: SGLT1 inhibitory activity: 14C-AMG uptake into CHO-K1 cell line stably expressing human SGLT1; assay type: cell-based; settings: 14C-AMG uptake, CHO-K1 cells expressing human SGLT1
Procedure, shortened: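 CHO-K1 cells stably expressing human SGLT1 were pre-incubated 20 min in Na(−) buffer (pH 7.4). Test compound in Na(+) buffer with BSA was added with ¹⁴C-AMG (8 kBq) plus unlabelled AMG (2 mM in the added solution) for 1 h at 37 °C.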

human SGLT1, sequence (P13866 whole entry): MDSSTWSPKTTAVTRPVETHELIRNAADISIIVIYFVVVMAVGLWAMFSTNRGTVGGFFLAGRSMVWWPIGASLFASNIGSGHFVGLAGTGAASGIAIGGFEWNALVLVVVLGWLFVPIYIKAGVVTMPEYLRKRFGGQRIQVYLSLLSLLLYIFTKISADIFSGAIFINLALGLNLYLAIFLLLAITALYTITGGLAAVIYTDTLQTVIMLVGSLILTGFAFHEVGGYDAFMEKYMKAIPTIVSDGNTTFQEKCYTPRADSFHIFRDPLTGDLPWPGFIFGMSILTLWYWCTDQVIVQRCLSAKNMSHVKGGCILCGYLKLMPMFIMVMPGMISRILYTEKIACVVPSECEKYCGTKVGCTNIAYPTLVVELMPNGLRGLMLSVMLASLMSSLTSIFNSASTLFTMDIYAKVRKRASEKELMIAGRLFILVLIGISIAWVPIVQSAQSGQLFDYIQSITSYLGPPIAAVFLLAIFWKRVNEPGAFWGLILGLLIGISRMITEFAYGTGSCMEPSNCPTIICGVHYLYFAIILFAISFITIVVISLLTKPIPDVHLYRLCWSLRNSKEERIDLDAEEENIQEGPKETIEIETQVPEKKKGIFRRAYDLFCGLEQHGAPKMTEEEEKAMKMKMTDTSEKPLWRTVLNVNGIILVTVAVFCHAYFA

Structure (SMILES) | IC50
CCCc1cccc(-c2cc(NC(=O)C3CNC(=O)C3)nn2-c2ccccc2)c1 (racemic) [Example 11] | 4.6 nM
C[C@H]1C(=O)NC[C@@H]1C(=O)Nc1cc(-c2cccc(OC(F)(F)F)c2)n(-c2cccc(F)c2)n1 [Example 3, (3R,4R)-4-methyl-5-oxopyrrolidine-3-carboxylic acid[1-(3-fluorophenyl)-5-(3-(trifluoromethoxy)phenyl)-1H-pyrazol-3-yl]amide] | 6.2 nM
CCC(F)(F)c1cccc(-c2cc(NC(=O)C3CCC(=O)NC3)nn2C2CCOCC2)c1 (single isomer, unassigned) [Example 185] | 66 nM
CCCc1cccc(-c2cc(NC(=O)[C@H]3CNC(=O)C3)nn2-c2ccccc2OC)c1 [Example 133] | 11 nM
Cc1ccc(-n2nc(NC(=O)[C@H]3CNC(=O)[C@@H]3C)cc2-c2cccc(OC(F)(F)F)c2)cc1 [Example 234] | 7.4 nM
O=C1C[C@@H](C(=O)Nc2cc(-c3cccc(OCC(F)(F)F)c3)n(-c3cccc(F)c3)n2)CN1 [Example 206] | 4.8 nM
Cc1cc(F)ccc1-n1nc(NC(=O)[C@H]2CNC(=O)[C@@H]2C)cc1-c1cccc(OC(F)(F)F)c1 [Example 196] | 4.8 nM
CCCc1cccc(-c2cc(NC(=O)[C@H]3CNC(=O)C3)nn2C2CCCC2)c1 [Example 64] | 12 nM
C[C@H]1C(=O)NC[C@@H]1C(=O)Nc1cc(-c2cccc(C(C)(C)C)c2)n(C2CCOCC2)n1 [Example 178] | 14 nM
O=C1C[C@@H](C(=O)Nc2cc(-c3cccc(OC(F)(F)F)c3)n(CCC(F)(F)F)n2)CN1 [Example 190] | 130 nM
O=C1C[C@@H](C(=O)Nc2cc(-c3cccc(OC(F)(F)F)c3)n(C3CCC(F)(F)CC3)n2)CN1 [Example 197] | 180 nM
CCCc1cccc(-c2cc(NC(=O)C3CNC(=O)C3)nn2C2CCCCC2)c1 (racemic) [Example 32] | 12 nM
O=C1CCC(C(=O)Nc2cc(-c3ccccc3)n(-c3ccccc3)n2)CN1 (racemic) [Example 10] | 5500 nM
Cc1ccc(-n2nc(NC(=O)[C@H]3CNC(=O)C3)cc2-c2cccc(OCC(F)(F)F)c2)cc1 [Example 216] | 8.7 nM
O=C1C[C@@H](C(=O)Nc2cc(-c3cccc(OC(F)(F)F)c3)n(-c3ccc(F)cc3)n2)CN1 [Example 147] | 15 nM
O=C1CC(C(=O)Nc2cc(-c3ccccc3)n(-c3ccccc3)n2)CN1 (racemic) [Example 9] | 1600 nM
CCCc1cccc(-c2cc(NC(=O)[C@H]3CNC(=O)N3)nn2-c2ccccc2)c1 [Example 8, (R)-2-oxoimidazolidine-4-carboxylic acid[1-phenyl-5-(3-propylphenyl)-1H-pyrazol-3-yl]amide] | 20 nM
CCCc1cccc(-c2cc(NC(=O)[C@H]3CNC(=O)C3)nn2-c2ccccc2Cl)c1 [Example 100] | 1.9 nM
CCCc1cccc(-c2cc(NC(=O)[C@H]3CNC(=O)C3)nn2C(F)(F)F)c1 [Example 86] | 54 nM
C[C@H]1C(=O)NC[C@@H]1C(=O)Nc1cc(-c2cccc(OC(F)(F)F)c2)n(CCC(F)(F)F)n1 [Example 191] | 54 nM
CCCCc1cccc(-c2cc(NC(=O)[C@H]3CNC(=O)C3)nn2-c2ccccc2)c1 [Example 45] | 4.3 nM
CCCc1cccc(-c2cc(NC(=O)[C@H]3CNC(=O)C3)nn2C2CCOCC2)c1 [Example 136] | 28 nM
C[C@H]1C(=O)NC[C@@H]1C(=O)Nc1cc(-c2cccc(C(F)(F)F)c2)n(-c2ccccc2F)n1 [Example 229] | 3.1 nM
CC(C)(C)c1cccc(-c2cc(NC(=O)[C@H]3CNC(=O)C3)nn2-c2ccccc2Cl)c1 [Example 132] | 0.9 nM
CCCc1cccc(-c2cc(NC(=O)[C@H]3CNC(=O)C3)nn2CCc2ccccc2)c1 [Example 107] | 44 nM

same assay, conditions: 14C-AMG uptake, CHO-K1 cells stably expressing human SGLT1

Structure (SMILES) | IC50
CC(C)COc1cccc(-c2cc(NC(=O)[C@@H]3CNC(=O)C3)nn2-c2ccccc2)c1 [Example 286] | 30 nM
CC(C)(C)OCc1cccc(-c2cc(NC(=O)C3CCC(=O)NC3)nn2-c2ccccc2)c1 (single isomer, unassigned) [Example 336] | 25 nM
CC(C)(C)COc1cccc(-c2cc(NC(=O)[C@@H]3CNC(=O)C3)nn2-c2ccccc2)c1 [Example 288] | 11.5 nM
COc1cc(F)cc(-n2nc(NC(=O)[C@@H]3CNC(=O)C3)cc2-c2cccc(CO[C@H](C)C(F)(F)F)c2)c1 [Example 533] | 2.1 nM
COCCOc1cccc(-n2nc(NC(=O)[C@@H]3CNC(=O)C3)cc2-c2cccc(CO[C@H](C)C(F)(F)F)c2)c1 [Example 455] | 3.1 nM
CCCOc1cccc(-n2nc(NC(=O)[C@@H]3CNC(=O)C3)cc2-c2cccc(CO[C@H](C)C(F)(F)F)c2)c1 [Example 453] | 1.7 nM
CCOc1cccc(-n2nc(NC(=O)[C@@H]3CNC(=O)C3)cc2-c2cccc(COCC(F)(F)F)c2)c1 [Example 447] | 4.7 nM
CC(C)Oc1ccc(F)c(-n2nc(NC(=O)[C@@H]3CNC(=O)C3)cc2-c2cccc(OC(F)(F)F)c2)c1 [Example 517] | 3.8 nM
C[C@@H](OCc1cccc(-c2cc(NC(=O)[C@@H]3CNC(=O)C3)nn2-c2ccc(Cl)cc2)c1)C(F)(F)F [Example 244, (S)-5-oxopyrrolidine-3-carboxylic acid{1-(4-chlorophenyl)-5-[3-((R)-2,2,2-trifluoro-1-methylethoxymethyl)phenyl]-1H-pyrazol-3-yl}amide] | 8 nM
CCCc1cccc(-c2cc(NC(=O)[C@H]3CNC(=O)N3CCC)nn2-c2ccccc2)c1 [Example 304] | 10 nM
COC(C)(C)c1cccc(-c2cc(NC(=O)[C@@H]3CNC(=O)N3)nn2-c2ccccc2)c1 [Example 270] | 45 nM
COCCOc1ccc(F)c(-n2nc(NC(=O)[C@@H]3CNC(=O)C3)cc2-c2cccc(CO[C@H](C)C(F)(F)F)c2)c1 [Example 465] | 1.7 nM
CC(C)(OCc1cc(F)cc(-c2cc(NC(=O)[C@H]3CNC(=O)N3)nn2-c2ccccc2)c1)C(F)(F)F [Example 601] | 31 nM
C[C@@H](OCc1cc(Cl)cc(-c2cc(NC(=O)[C@@H]3CNC(=O)C3)nn2-c2ccc(F)cc2)c1)C(F)(F)F [Example 242, (S)-5-oxopyrrolidine-3-carboxylic acid{5-[3-chloro-5-((R)-2,2,2-trifluoro-1-methylethoxymethyl)phenyl]-1-(4-fluorophenyl)-1H-pyrazol-3-yl}amide] | 9 nM
O=C1NC[C@H](C(=O)Nc2cc(-c3cccc(COCC(F)(F)F)c3)n(-c3ccccc3)n2)N1 [Example 349] | 72 nM
CCCc1cccc(-c2cc(NC(=O)[C@@H]3CNC(=O)C3)nn2-c2cccc(CC(C)C)c2)c1 [Example 496] | 6.9 nM
CCCc1cccc(-c2cc(NC(=O)C3CNC(=O)C3CC)nn2-c2ccccc2)c1 (single isomer, unassigned) [Example 309] | 49 nM
CCCOc1cccc(-n2nc(NC(=O)[C@@H]3CNC(=O)C3)cc2-c2cccc(COCC(F)(F)F)c2)c1 [Example 448] | 4.3 nM
C[C@@H](OCc1cccc(-c2cc(NC(=O)[C@@H]3CNC(=O)C3)nn2-c2ccccc2F)c1)C(F)(F)F [Example 472] | 4.7 nM
CCCc1cccc(-c2cc(NC(=O)[C@@H]3CNC(=O)C3)nn2-c2cccc(OC(=O)OC(C)(C)C)c2)c1 [Example 388] | 5.35 nM
O=C1C[C@H](C(=O)Nc2cc(-c3cc(F)cc(COCC(F)(F)F)c3)n(-c3ccccc3)n2)CN1 [Example 488] | 18 nM
CC(C)Oc1cc(-n2nc(NC(=O)[C@@H]3CNC(=O)C3)cc2-c2cccc(COCC(F)(F)F)c2)ccc1F [Example 418] | 2.35 nM
CCCc1cccc(-c2cc(NC(=O)[C@@H]3CNC(=O)C3)nn2-c2ccc(F)c(OCC)c2)c1 [Example 390] | 9.4 nM
COc1cc(-n2nc(NC(=O)[C@@H]3CNC(=O)C3)cc2-c2cccc(OC(F)(F)F)c2)ccc1F [Example 420] | 47 nM
CC(C)OCc1cccc(-c2cc(NC(=O)[C@H]3CNC(=O)C3)nn2-c2ccccc2)c1 [Example 311] | 17.5 nM
CCCO[C@@H](C)c1cccc(-c2cc(NC(=O)[C@@H]3CNC(=O)C3)nn2-c2ccccc2)c1 [Example 396] | 31 nM
CC(C)(OCc1cc(Cl)cc(-c2cc(NC(=O)[C@H]3CNC(=O)N3)nn2-c2ccc(F)cc2)c1)C(F)(F)F [Example 600] | 41 nM
CCOc1cc(-n2nc(NC(=O)[C@@H]3CNC(=O)C3)cc2-c2cccc(OC(F)(F)F)c2)ccc1F [Example 421] | 20 nM
CC(C)(OCc1cc(F)cc(-c2cc(NC(=O)[C@@H]3CNC(=O)C3)nn2-c2ccc(Cl)cc2)c1)C(F)(F)F [Example 580] | 7.6 nM
CCCc1cccc(-c2cc(NC(=O)[C@@H]3CNC(=O)C3)nn2-c2ccc(O)cc2)c1 [Example 371] | 36 nM

same assay, conditions: CHO-K1, at 0.1 uM

Structure (SMILES) | inhibition at 0.1 µM
O=C1C[C@H](C(=O)Nc2cc(-c3cccc(COC4CCOCC4)c3)n(-c3ccccc3)n2)CN1 [Example 543] | 15%
CCCc1cccc(-c2cc(NC(=O)C3CNC(=O)CO3)nn2-c2ccccc2)c1 (stereo not shown) [Example 275] | 48%
CCC(F)(F)c1cccc(-c2cc(NC(=O)[C@H]3CNC(=O)C3)nn2CCOC(C)C)c1 [Example 175] | 40%
O=C1C[C@H](C(=O)Nc2cc(-c3cccc(CO[C@H]4CCCOC4)c3)n(-c3ccccc3)n2)CN1 [Example 539] | 35%
CCC(F)(F)c1cccc(-c2cc(NC(=O)[C@H]3CNC(=O)C3)nn2CCN2CCCC2)c1 [Example 169] | 4%
CCCc1cccc(-c2cc(NC(=O)C3CNC(=O)C34CC4)nn2-c2ccccc2)c1 (stereo not shown) [Example 361] | 33%
CC(C)(C)C#Cc1cccc(-c2cc(NC(=O)[C@@H]3CNC(=O)C3)nn2-c2ccccc2)c1 [Example 499] | 4%
O=C1C[C@H](C(=O)Nc2cc(-c3cccc(C(=O)NCC(F)(F)F)c3)n(-c3ccccc3)n2)CN1 [Example 433] | 8%
C[C@@H](OCc1cccc(-c2cc(NC(=O)[C@@H]3CNC(=O)C3)nn2C2CCOCC2)c1)C(F)(F)F [Example 582] | 47%
